Measurements from patent US20120028358A1, “METHOD FOR INCREASING RETROVIRAL INFECTIVITY” (priority 2010, published 2012).

Tested on: rat PMVEC
Assay: Gamma-retroviral infection efficiency of PMVEC (percent fluorescent cells by FACS)
Type: cell-based
Conditions: 1 μmol/L; MMLV with ecotropic, amphotropic, VSV-G pantropic envelope
Protocol: Cell cultures: Phoenix Retroviral Expression System ecotropic and amphotropic packaging cells were purchased from Orbigen, Inc. (San Diego, Calif.). […] Rat pulmonary microvascular endothelial cells (PMVEC), were obtained from our cell culture core at the University of South Alabama (King J, et al. Structural and functional characteristics of lung macro and microvascular endothelial phenotypes. Microvascular Res. 2004, March, 67(2). 139-151). Human glioblastoma cells (U87MG), and human mammary carcinoma cells (T47D) were obtained from ATCC. All cells were cultured in DMEM, 10% FBS, 2 mmol L-Glutamine and used for experiments at passages 4-9. All cells were grown in humidified incubators at 37° C. in 5% CO2. Cells were harvested by 0.05% trypsin/0.53 mM EDTA digestion, washed, re-suspended in cultured medium and analyzed directly by FACScan in the University of South Alabama Flow Cytometry Core. For cell cycle analysis cellular DNA was stained with […] of propridium iodide for 20 minutes as described elsewhere (48) and then analyzed by FACScan.
Vectors and delivery systems: pBMN-GFP (Orbigen, Inc., San Diego, Calif.), a retroviral vector that expresses GFP driven by the MMLV's promoter in Phoenix and other cells was used. […]

SMILES: CC#C[C@]1(O)CC[C@H]2[C@@H]3CCC4=CC(=O)CCC4=C3[C@@H](c3ccc(N(C)C)cc3)C[C@@]21C [mifepristone, 11-beta-(4-dimethylaminophenyl)-17-beta-hydroxy-17-alpha-(1-propynyl)-estra-4,9-dien-3-one]
- Percentage of infected cells: doubled
